As a reminder, the EC50 is the concentration that produces a half-maximal response. A low value points to greater potency. By Emax is commonly meant the greatest response seen or fitted, relative to the assay's reference.

Experimental findings from paper PMC5860131, “Identification of natural products as novel ligands for the human 5-HT2C receptor” (Biophysics Reports, 2018) are described below.

Where only a bound is given, the exact number is not on record here.

Test [1] addresses T1, 5-HT2C receptor (Homo sapiens, UniProt P28335, DEL255-298/G251D/H250E/H252N/INS299[…]/L248D/M247A/M300L/T253W).
T1 construct: the N- and C-terminals were truncated by 39 and 65 residues, respectively; FLAG (N); PreScission protease site + 10× His (C); made in house; host or cells: Spodoptera frugiperda (Sf9), baculovirus
It counts as binding. Particulars: CPM assay, comparing to apo-protein.

Test [2] concerns the target T2, 5-HT2C receptor (Homo sapiens, UniProt P28335).
T2 construct: expressed in transfected cells; host or cells: HEK 293T, stably transfected
T2 sequence (P28335 33-458): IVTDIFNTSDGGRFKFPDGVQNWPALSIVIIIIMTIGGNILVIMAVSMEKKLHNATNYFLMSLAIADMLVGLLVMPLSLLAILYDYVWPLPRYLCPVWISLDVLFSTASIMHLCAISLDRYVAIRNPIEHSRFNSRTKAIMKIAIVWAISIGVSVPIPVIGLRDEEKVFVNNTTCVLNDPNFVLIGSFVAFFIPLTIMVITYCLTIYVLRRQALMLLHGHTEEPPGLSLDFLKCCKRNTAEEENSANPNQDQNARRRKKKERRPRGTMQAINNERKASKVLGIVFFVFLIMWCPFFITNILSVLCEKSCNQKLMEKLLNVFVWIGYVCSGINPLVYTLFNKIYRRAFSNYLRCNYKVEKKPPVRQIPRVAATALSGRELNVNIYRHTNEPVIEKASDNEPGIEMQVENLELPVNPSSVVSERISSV
The test is described as follows: Ca2+ mobilization assay (Fluo-4, FLIPR), HEK 293T cells stably transfected with 5-HT2C. The format is cell-based. The text has this:
(§1) The 5-HT2C receptor mainly couples to Gαq proteins. The activated 5-HT2C receptor transmits the signals from the extracellular to the intercellular side using DAG/IP3 (diacyl glycerol/inositol 1,4,5-trisphosphate) as its second massagers (Hannon and Hoyer [2008]). IP3 stimulates the endoplasmic reticulum to release calcium ions into the cytoplasm, which causes the increase of calcium concentration in cytosol. Therefore, calcium mobilization assay is commonly applied to understand how unknown small molecule ligands of 5-HT2C receptor modulate cellular signal transductions. In this case, Fluo-4 Direct dye was used as a fluorescence indicator to detect calcium flux in G protein-coupled receptor expressed cells. The fold of maximum response over average of basal reading is plotted against compound concentration to determine the potency of the compounds (Fig. 3). […]. HEK 293T cells stably transfected with 5-HT2A/2B/2C receptor were seeded in 384-well plates at a density of 15,000 cells/well in DMEM containing 1% dialyzed FBS 8 h before the calcium flux assay. After removing medium, cells were then incubated (20 μl/well) for 1 h at 37 °C with Fluo-4 Direct dye (Invitrogen) reconstituted in FLIPR buffer (1× HBSS, 2.5 mmol/L probenecid, and 20 mmol/L HEPES, pH 7.4). After the dye loaded, cells were placed in a FLIPR^TETRA fluorescence imaging plate reader (Molecular Devices); drug dilutions, prepared at 3× final concentration in FLIPR buffer and aliquotted into 384-well plates, were also added to the FLIPR^TETRA. The fluidics module and plate reader of the FLIPR^TETRA were programmed to read baseline fluorescence for 10 s (1 read/s), then to add 10 μl of drug/well and to read for 6 min (1 read/s). Fluorescence in each well was normalized to the average of the first 10 reads (i.e., baseline fluorescence). Then, the maximum-fold increase, which occurred within 60 s after drug addition, over baseline fluorescence elicited by vehicle or drug was determined. […]

The target of a further test is T3, 5-HT2B receptor (Homo sapiens, UniProt P41595).
T3 construct: expressed in transfected cells; host or cells: HEK 293T, stably transfected
T3 sequence (P41595 whole entry): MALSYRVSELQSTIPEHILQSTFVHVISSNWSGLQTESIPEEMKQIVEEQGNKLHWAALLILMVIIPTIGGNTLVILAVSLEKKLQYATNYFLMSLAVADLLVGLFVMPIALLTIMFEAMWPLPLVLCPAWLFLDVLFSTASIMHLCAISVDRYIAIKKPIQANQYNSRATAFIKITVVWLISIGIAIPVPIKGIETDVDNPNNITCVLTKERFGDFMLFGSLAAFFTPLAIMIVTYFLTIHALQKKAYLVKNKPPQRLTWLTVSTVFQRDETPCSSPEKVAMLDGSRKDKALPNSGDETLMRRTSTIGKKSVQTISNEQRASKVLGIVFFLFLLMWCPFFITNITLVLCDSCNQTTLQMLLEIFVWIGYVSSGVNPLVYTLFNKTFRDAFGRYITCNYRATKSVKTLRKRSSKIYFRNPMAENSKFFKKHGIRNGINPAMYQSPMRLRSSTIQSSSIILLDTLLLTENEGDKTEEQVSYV
The test is described as follows: Ca2+ mobilization assay (Fluo-4, FLIPR), HEK 293T cells stably transfected with 5-HT2B. The format is cell-based. The conditions noted are these: agonist mode, up to 30,000 nmol/L.
Source text: as §1, with “HEK 293T cells stably transfected with 5-HT2A/2B/2C receptor were seeded in 384-well plates at a density of 15,000 cells/well in DMEM containing 1% dialyzed FBS 8 h before the calcium flux assay. After removing medium, cells were then incubated (20 μl/well) for 1 h at 37 °C with Fluo-4 Direct dye (Invitrogen) reconstituted in FLIPR buffer (1× HBSS, 2.5 mmol/L probenecid, and 20 mmol/L HEPES, pH 7.4).” left out, “read/s).” for “read/s). Fluorescence in each well was normalized to the average of the first 10 reads (i.e., baseline fluorescence). Then, the maximum-fold increase, which occurred within 60 s after drug addition, over baseline fluorescence elicited by vehicle or drug was determined.”
For orientation: Calcium assays in cells follow changes in intracellular calcium, usually with a dye or a luminescent sensor.

The next test concerns the target T4, 5-HT2A receptor (Homo sapiens, UniProt P28223).
T4 construct: expressed in transfected cells; host or cells: HEK 293T, stably transfected
The experiment in a line: Ca2+ mobilization assay (Fluo-4, FLIPR), HEK 293T cells stably transfected with 5-HT2A. Particulars: agonist mode, up to 30,000 nmol/L. The format is cell-based.
Source text: as §1, with “HEK 293T cells stably transfected with 5-HT2A/2B/2C receptor were seeded in 384-well plates at a density of 15,000 cells/well in DMEM containing 1% dialyzed FBS 8 h before the calcium flux assay. After removing medium, cells were then incubated (20 μl/well) for 1 h at 37 °C with Fluo-4 Direct dye (Invitrogen) reconstituted in FLIPR buffer (1× HBSS, 2.5 mmol/L probenecid, and 20 mmol/L HEPES, pH 7.4).” left out, “read/s).” for “read/s). Fluorescence in each well was normalized to the average of the first 10 reads (i.e., baseline fluorescence). Then, the maximum-fold increase, which occurred within 60 s after drug addition, over baseline fluorescence elicited by vehicle or drug was determined.”

Test [3] concerns cortical pyramidal neurons. The test is described as follows: Whole-cell patch clamp recording of spontaneous synaptic current (SPSC) in brain slices. The format is cell-based. The conditions noted are these: 10 μmol/L; mouse brain slices. The procedure: 5-HT receptors play important roles in central and peripheral nervous systems. Malfunctions of these receptors have been linked to many neural disorders such as depression and psychosis. The effect of (–)-crebanine on changes in 5-HT induced synaptic transmission was evaluated by electrophysiological recording of mouse brain slices (Jang et al. [2012]). The spontaneous synaptic current (SPSC) of cortical pyramidal neurons was recorded in whole cell mode.
Cortical slices from ICR mouse of both genders (15–21 days) were prepared for electrophysiological recording. In brief, the animals were decapitated and brains were placed in cold sucrose artificial cerebrospinal fluid (sucrose-ASCF, in mmol/L: sucrose 213, KCl 2.5, NaH2PO4 1.25, NaHCO3 26, D-glucose 10, MgSO4 2, CaCl2 2, pH 7.4, 0–4 °C, saturated with 95% O2 and 5% CO2). The brains were cut into 280 or 300 μm slices with a vibratome (Leica VT1200S, Germany); slices were then incubated with ACSF (in mmol/L: NaCl 126, KCl 2.5, NaH2PO4 1.25, NaHCO3 26, D-glucose 25, MgSO4 2, CaCl2 2, pH 7.4, saturated with 95% O2 and 5% CO2) at room temperature for 1 h.
A whole-cell patch clamp technique was used. […] Activity of cortical pyramidal neurons was recorded using an amplifier (HEKA EPC 10 USB, Germany) in the voltage clamp mode. […]
Background: Patch clamp records ionic current or voltage across a cell membrane.

The target in test [4] is T1, 5-HT2C receptor. The format is binding.

T1 sequence (P28335 with tags, fused parts or gaps with the stated changes limits assumed): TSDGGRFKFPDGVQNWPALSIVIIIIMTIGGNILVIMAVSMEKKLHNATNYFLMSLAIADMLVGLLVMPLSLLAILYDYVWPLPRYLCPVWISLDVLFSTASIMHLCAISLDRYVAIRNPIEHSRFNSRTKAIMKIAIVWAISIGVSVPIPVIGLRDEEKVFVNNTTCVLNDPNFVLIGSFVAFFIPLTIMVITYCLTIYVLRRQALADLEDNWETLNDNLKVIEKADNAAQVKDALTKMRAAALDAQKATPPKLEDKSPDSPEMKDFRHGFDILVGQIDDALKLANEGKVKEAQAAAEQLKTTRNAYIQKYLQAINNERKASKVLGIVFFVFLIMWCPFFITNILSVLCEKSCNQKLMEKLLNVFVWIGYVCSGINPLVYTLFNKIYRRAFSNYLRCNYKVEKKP
T4 sequence (P28223 whole entry): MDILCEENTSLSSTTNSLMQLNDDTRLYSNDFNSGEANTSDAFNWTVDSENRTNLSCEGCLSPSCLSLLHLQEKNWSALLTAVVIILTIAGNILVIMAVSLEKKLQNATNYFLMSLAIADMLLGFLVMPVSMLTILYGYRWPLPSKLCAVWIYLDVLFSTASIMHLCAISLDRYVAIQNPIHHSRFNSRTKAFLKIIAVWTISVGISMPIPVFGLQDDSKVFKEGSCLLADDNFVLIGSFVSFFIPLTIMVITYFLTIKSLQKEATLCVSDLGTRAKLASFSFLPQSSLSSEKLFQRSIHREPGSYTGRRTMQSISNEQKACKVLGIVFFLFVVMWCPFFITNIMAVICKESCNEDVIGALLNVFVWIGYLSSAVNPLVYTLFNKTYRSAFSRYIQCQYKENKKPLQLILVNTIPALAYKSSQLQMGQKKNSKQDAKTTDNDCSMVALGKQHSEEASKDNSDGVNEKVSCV

In the case of `COc1cc2c(cc1OC)-c1c3c(cc4c1[C@@H](C2)N(C)CC4)OCO3` [Compound 2, (–)-dicentrine], the “thermal shift value (∆Tm)” value on 5-HT2C receptor [1] is < 1.00 °C.

For the compound `COc1ccc2c(c1O)-c1c(O)c(OC)cc3c1[C@H](C2)[N+](C)(C)CC3` [Compound 3, (+)-magnoflorine], the “thermal shift value (∆Tm)” value at 5-HT2C receptor [1] was < 1.00 °C.

`COc1cc2cc3c4c(cc(OC)c(OC)c4c2cc1OC)CCN3C` [Compound 4, didehydroglaucine]: the “thermal shift value (∆Tm)” value at 5-HT2C receptor [1] was < 1.00 °C.

On 5-HT2C receptor [2], `COc1ccc2c(c1O)-c1c(OC)c(OC)cc3c1[C@H](C2)N(C)CC3` [Compound 5, (+)-isocorydine] had a concentration giving a half-maximal response (EC50) of 2080 nM. This compound also gave an Emax on 5-HT2C receptor [2] (HEK-293T) of 16.6%. In addition, the receptor activation entry at 5-HT2B receptor and on 5-HT2A receptor was “inactive” in each case.

Turning to `NCCc1c[nH]c2ccc(O)cc12` [Compound 5-HT, 5-hydroxytryptamine, reference compound], the “effect on SPSC” value in test [3] is reported as “amplified”.

With `Cc1nc2sccn2c(=O)c1CCN1CCC(=C(c2ccc(F)cc2)c2ccc(F)cc2)CC1` [Ritanserin, ritanserin, reference compound], at 5-HT2C receptor [4], the S/C was found to be 8.39 ± 1.80 and the “affinity (in words)” value is “high nmol/L range”.
